# Legend:
# [1] = test system: LPS stimulated peritoneal macrophages; assay: Cytokine secretion by LPS stimulated peritoneal macrophages; format: cell-based, mouse (C57BL/6)
# Excerpt: Macrophages represent a key component of the innate immune system. Alveolar macrophages are thought to play a central role in disease pathogenesis by secreting pro-inflammatory cytokines and chemokines in the context of both chronic obstructive pulmonary disease (COPD) and cystic fibrosis (CF), two respiratory illnesses involving airway inflammation. It was hypothesized that given the prominent role of alveolar macrophages in LPS induced lung inflammation, it may be possible that Ca^2+-ion containing formulations directly influence the inflammatory response of the macrophage after LPS exposure. In order to test this hypothesis in-vitro, murine peritoneal macrophages were isolated. C57BL/6 female mice were anesthetized using isofluorane inhalant. […] To confirm macrophage phenotype, a cytospin preparation was performed. Cells were cultured in DMEM:F12 overnight. The following day the media was removed and the macrophages were exposed to media supplemented with varying concentrations of LPS (1 ng/ml to 1 microgram/ml), a dose range of supplemental calcium chloride (5 mM to 50 mM) as well as a dose range of calcium chloride in the presence of LPS for 2 hours. After 2 hours in culture the media was collected for analysis of inflammatory cytokines using LUMINEX® Multiplex immunoassays (Invitrogen/Life Technologies, Grand Island, N.Y.) and BIO-PLEX MANAGER™ software (Version 6) (Bio-Rad, Hercules, Calif.). Presto blue or trypan blue assays were used to determine cell viability. […] The media content for 3 representative inflammatory mediators (IL-6, KC and TNF-alpha) cultured under LPS free conditions (unstimulated) as well as cells exposed to 1 ng/ml LPS were analyzed.
# (§1) To determine the effects of alternating the cation in the calcium chloride salt, LPS stimulated human or mouse macrophages were exposed to alternative divalent and monovalent cations, magnesium chloride and sodium chloride, as well as an alternative […] anion, calcium lactate. Normal human monocytes were differentiated into macrophage derived monocytes in culture for 7 days as described in Example 16, and perotineal derived mouse macrophages were described in Example 15. Following two hours of incubation with LPS (10 ng/ml) and the appropriate salt concentration, supernatants were collected for LUMINEX protein analysis of inflammatory cytokines.
# human macrophages = assay: Cytokine secretion by LPS stimulated human monocyte-derived macrophages (normal and COPD-derived); format: cell-based; conditions: 10 ng/ml LPS, 2 hours
# Experimental: Normal and COPD-derived human monocytes were differentiated into macrophage derived monocytes in culture for 7 days. Cells were thawed following storage in liquid nitrogen, and then plated at 2.0-2.5×10^5 cells/well (in 0.2 ml per well) in IMDM cell culture media containing 10% human serum and human GM-CSF (50 ng/ml). On day 7, assays were performed on the cells, using media containing serum but no GM-CSF. Cells were stimulated with 10 ng/ml LPS, and exposed to calcium chloride concentrations of either 10 or 25 mM. Following two hours, supernatants were collected for LUMINEX analysis of IL-8, IL-6, TNF alpha and MIP-1 alpha (FIG. 17A), IL-8 only for COPD (FIG. 17B). […] Calcium chloride reduced LPS induced inflammation in normal and COPD-derived human monocyte-derived macrophages.
# as §1
# TLR 5 = TLR 5 (Mus musculus, UniProt Q9JLF7); conditions: TLR 5 ligand; negative values indicate increased KC
# TLR 5, sequence (Q9JLF7 27-859): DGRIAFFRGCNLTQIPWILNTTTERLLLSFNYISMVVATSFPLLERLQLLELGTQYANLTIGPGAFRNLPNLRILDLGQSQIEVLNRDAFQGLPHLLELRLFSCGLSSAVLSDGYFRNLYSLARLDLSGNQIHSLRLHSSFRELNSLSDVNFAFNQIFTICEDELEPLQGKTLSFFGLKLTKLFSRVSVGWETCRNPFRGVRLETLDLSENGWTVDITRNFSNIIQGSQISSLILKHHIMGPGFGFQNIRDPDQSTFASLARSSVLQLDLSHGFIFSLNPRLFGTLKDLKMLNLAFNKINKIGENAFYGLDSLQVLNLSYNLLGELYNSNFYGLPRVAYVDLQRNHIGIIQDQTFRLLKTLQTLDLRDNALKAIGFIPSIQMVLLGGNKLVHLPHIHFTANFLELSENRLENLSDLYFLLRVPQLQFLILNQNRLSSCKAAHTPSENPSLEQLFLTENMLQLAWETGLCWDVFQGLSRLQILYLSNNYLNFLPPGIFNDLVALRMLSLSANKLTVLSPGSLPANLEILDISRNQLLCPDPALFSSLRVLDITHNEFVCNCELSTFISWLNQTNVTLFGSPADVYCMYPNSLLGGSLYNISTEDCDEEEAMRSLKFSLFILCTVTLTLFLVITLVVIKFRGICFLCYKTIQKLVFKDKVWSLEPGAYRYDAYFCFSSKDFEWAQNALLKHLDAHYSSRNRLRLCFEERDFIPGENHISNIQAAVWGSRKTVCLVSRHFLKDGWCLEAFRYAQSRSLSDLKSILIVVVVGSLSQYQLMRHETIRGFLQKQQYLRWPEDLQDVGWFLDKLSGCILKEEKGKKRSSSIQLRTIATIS
# Experimental: (§2) It was hypothesized that calcium likely alters the immune response to LPS and possibly other TLR receptors in alveolar macrophages. To test this hypothesis, primary macrophages were isolated from mice. Briefly, C57BL/6 female mice were anesthetized using isofluorane inhalant. Animals were injected i.p. with 1.5 ml thioglycollate. Three to four days post injection mice were euthanized using CO2 to harvest peritoneal macrophages. Under sterile conditions, the abdominal wall was exposed and the peritoneal cavity was injected with 7 ml of lavage media, which was immediately recovered back into the syringe and deposited into a 50 mL conical tube. The peritoneal cavity was opened and the residual lavage media was recovered. Cell suspensions were centrifuged at 1200 rpm (RT-6000) for 8-10 minutes. The supernatant was removed and cell pellets were resuspended in 1-2 ml lysis buffer, incubated at room temperature (RT) for 1-2 minutes, and resuspended in18-19 ml cell culture media (DMEM/F-12). Cells were again centrifuged, supernatants were removed, the cell pellets were pooled, washed once more in cell culture media, centrifuged, and resuspended in 10 ml cell culture media, and cells were counted using a hemocytometer. To confirm macrophage phenotype, a cytospin preparation was performed. Cells were cultured in DMEM:F12 overnight. Cells were then stimulated with agonists to TLR4 (LPS or LipidA), TLR1/2 (pam3CSK4), TLR2/6 (FLS-1), TLR2 (LT-SA), TLR3 (Poly I:C), TLR 5 (Flagellin), TLR7 (Gardiquimod or Loxoribine) and TLR9 (CPG-ODN) ligands with 0, 10 or 25 mM calcium chloride supplemented to the media.
# TLR1/2 = TLR1/2 (Mus musculus, UniProt Q9EPQ1+Q9QUN7); conditions: TLR 1/2 ligand; negative values indicate increased KC
# TLR1/2, sequence (Q9EPQ1 26-795): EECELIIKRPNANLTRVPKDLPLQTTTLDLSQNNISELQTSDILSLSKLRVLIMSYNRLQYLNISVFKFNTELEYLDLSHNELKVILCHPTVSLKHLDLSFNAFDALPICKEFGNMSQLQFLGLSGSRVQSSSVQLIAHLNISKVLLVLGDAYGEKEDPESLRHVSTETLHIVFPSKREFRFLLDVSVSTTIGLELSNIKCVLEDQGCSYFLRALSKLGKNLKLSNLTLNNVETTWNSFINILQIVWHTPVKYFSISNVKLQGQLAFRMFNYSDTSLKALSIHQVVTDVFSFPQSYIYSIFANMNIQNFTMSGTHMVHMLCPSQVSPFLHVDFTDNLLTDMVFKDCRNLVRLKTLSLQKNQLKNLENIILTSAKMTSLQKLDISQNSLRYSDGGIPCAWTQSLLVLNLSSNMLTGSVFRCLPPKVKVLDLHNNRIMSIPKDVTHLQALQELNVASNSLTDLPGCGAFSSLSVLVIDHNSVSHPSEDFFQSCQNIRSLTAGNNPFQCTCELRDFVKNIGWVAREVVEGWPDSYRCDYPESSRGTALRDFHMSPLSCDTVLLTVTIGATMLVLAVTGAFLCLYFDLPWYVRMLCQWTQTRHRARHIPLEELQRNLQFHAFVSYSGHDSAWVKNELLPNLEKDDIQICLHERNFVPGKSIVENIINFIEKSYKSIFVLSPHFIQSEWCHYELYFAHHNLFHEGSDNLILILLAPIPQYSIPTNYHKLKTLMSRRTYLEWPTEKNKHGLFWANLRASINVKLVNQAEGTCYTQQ
# TLR1/2, sequence (Q9QUN7 25-784): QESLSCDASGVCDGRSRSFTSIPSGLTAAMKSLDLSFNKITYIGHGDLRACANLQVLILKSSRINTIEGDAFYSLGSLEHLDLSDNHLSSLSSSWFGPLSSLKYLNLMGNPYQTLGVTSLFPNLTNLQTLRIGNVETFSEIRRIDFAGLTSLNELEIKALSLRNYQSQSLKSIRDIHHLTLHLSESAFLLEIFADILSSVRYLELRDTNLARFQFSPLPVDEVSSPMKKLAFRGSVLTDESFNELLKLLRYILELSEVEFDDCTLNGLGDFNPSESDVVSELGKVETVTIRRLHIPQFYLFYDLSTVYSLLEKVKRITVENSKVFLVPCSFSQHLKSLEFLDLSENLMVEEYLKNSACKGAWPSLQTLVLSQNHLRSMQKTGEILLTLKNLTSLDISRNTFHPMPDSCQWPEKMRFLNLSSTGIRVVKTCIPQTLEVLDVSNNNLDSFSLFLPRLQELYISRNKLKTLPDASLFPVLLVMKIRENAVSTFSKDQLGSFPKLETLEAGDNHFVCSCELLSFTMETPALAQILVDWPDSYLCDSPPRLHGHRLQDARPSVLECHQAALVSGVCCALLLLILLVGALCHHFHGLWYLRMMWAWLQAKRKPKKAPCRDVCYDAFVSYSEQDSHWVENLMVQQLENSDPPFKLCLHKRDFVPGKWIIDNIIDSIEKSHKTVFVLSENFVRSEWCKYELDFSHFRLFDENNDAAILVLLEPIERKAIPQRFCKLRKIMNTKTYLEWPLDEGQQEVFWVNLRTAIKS
# Experimental: as §2
# TLR2 = TLR2 (Mus musculus, UniProt Q9QUN7); conditions: TLR 2 ligand; negative values indicate increased KC
# TLR2, sequence (Q9QUN7 25-784): as above
# Experimental: as §2
# TLR2/6 = TLR2/6 (Mus musculus, UniProt Q9EPW9+Q9QUN7); conditions: TLR 2/6 ligand; negative values indicate increased KC
# Experimental: as §2
# TLR3 = TLR3 (Mus musculus, UniProt Q99MB1); conditions: TLR 3 ligand; negative values indicate increased KC
# Experimental: as §2
# TLR4 = TLR4 (Mus musculus, UniProt Q9QUK6); conditions: TLR 4 ligand; negative values indicate increased KC
# TLR4, sequence (Q9QUK6 26-835): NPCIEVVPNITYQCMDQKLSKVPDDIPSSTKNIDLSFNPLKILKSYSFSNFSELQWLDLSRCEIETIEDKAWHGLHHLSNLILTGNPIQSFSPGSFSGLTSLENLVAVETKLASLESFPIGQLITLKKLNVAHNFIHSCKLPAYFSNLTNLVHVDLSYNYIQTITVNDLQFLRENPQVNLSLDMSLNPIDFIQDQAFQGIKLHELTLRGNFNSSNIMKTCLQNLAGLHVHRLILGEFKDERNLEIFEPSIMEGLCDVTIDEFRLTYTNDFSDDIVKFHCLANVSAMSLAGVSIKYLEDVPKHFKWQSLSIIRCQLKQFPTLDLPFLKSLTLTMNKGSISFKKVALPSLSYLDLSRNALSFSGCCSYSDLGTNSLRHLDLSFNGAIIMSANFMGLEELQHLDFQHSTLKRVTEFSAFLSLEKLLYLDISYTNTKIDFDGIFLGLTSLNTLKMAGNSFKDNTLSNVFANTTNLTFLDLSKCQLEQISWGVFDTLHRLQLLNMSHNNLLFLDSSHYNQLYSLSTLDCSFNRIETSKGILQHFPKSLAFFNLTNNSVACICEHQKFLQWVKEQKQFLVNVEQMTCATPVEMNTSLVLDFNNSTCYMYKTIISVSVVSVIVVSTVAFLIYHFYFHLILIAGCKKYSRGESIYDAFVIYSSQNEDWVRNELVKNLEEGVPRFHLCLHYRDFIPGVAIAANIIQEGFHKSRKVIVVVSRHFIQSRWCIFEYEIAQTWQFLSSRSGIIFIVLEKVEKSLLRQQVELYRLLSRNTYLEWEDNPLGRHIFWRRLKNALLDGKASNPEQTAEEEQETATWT
# TLR4, sequence (Q9JHF9 19-160 partner): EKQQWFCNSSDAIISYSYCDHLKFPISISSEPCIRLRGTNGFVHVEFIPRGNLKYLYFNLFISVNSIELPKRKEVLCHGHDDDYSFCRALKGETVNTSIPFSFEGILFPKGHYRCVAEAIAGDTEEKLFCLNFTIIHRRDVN
# Experimental: as §2
# TLR7 = TLR7 (Mus musculus, UniProt P58681); conditions: TLR 7 ligand; negative values indicate increased KC
# Experimental: as §2
# TLR9 = TLR9 (Mus musculus, UniProt Q9EQU3); conditions: TLR 9 ligand; negative values indicate increased KC
# TLR9, sequence (Q9EQU3 26-1032): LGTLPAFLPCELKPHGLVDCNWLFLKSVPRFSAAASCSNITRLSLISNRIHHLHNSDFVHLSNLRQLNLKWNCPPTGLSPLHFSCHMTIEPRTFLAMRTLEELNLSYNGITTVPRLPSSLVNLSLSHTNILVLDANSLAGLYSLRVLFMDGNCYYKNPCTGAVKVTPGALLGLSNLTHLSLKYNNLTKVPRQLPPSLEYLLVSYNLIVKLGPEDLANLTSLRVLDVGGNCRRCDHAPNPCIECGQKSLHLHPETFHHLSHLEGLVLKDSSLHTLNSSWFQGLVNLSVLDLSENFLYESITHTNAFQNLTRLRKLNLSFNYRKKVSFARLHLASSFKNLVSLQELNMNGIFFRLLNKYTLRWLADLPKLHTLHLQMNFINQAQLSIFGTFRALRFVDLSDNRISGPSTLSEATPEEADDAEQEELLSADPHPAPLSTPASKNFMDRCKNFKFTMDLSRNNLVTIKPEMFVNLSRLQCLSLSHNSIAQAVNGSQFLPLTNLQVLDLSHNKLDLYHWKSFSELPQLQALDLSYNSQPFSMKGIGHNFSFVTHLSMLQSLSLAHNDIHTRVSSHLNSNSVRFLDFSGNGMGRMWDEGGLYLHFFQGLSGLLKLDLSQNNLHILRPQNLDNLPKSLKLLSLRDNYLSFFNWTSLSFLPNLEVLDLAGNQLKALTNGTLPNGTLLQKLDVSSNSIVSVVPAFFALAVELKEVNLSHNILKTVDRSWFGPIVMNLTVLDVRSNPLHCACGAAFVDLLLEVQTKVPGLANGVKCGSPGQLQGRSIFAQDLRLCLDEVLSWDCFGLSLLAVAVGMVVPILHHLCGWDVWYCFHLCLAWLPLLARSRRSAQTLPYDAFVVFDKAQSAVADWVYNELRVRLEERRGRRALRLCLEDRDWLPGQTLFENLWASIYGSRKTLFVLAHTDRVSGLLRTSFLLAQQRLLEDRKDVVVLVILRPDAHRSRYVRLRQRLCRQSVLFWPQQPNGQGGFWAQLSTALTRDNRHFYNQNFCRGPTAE
# Experimental: as §2
# [2] = test system: LPS stimulated peritoneal macrophages
# Experimental: Following 2 hours of incubation, cells were lysed, RNA was isolated, and a cDNA reaction was performed. RNA was harvested using the QIAGEN (Germantown, Md.) RNeasy® Plus Mini kit according to the manufacturer's Animal Cell Protocol (2005). RNA concentration and purity was determined by spectrophotometry using NANODROP 1000 spectrophotometer (Thermo Fisher Scientific, Wilmington, Del.). The expression of KC, IL-6, and TNF alpha were assessed by quantitative PCR. RNA expression levels of selected genes were quantified using the delta/delta C(t) (ΔΔCt) method using the expression of 18S as an internal reference for each sample. RNA was quantified by a two-step procedure in which RNA was converted to cDNA by reverse transcription using the iSCRIPT cDNA Synthesis kit from Bio-Rad followed by quantitative PCR (qPCR) using iQ SYBR Green Supermix from Bio-Rad.
# The following cDNA synthesis reaction conditions were used: […]
# The following quantitative PCR reaction conditions were used: […]
# Data were collected and analyzed using the (delta/delta) ΔΔCt method. […] The fold change was then determined by the equation: 2^−ΔΔCt. […]
# [3] = test system: macrophages stimulated with S. pneumoniae; conditions: S. pneumoniae challenge, 0, 5, 10, 25 mM, 2 hours
# Experimental: (§3) To assess the level of bacterial induced inflammation in isolated peritoneal murine macrophages, isolated cells were placed in cell culture media and allowed to adhere to 96 well plates overnight. […] Following two hours of incubation, supernatants were collected for LUMINEX analysis of KC and TNF alpha with the results shown in FIG. 19.
# [4] = test system: macrophages stimulated with K. pneumoniae; conditions: 1×10^7 CFU/ml K. pneumoniae, 0, 5, 10, 25 mM, 2 hours
# Experimental: as §3
compound,measurement,setting,value
[Ca+2].[Cl-].[Cl-] [calcium chloride],"protein secretion of KC, IL-6 and TNF alpha","[1]; 1 ng/ml LPS, 2 hours, 10, 25, 50 mM, compared to untreated (0) cells",significantly reduced
same,cell viability,[1]; Presto blue or trypan blue assays,generally did not affect cell viability
same,"LPS induced inflammatory mediator secretion (KC, IL-6)","[1]; mouse macrophages, 10 ng/ml LPS, 2 hours, salts 0-50 mM",decreased
same,inflammatory mediator release of unstimulated cells,"[1]; no LPS, increasing calcium chloride content",mild increase
same,"inflammatory cytokine secretion (IL-8, IL-6, TNF alpha, MIP-1 alpha; IL-8 only for COPD)","human macrophages; 25 mM, to near that of non-LPS challenged cells",significant decline
same,"LPS induced cytokine production (IL-8, IL-6)","human macrophages; human macrophages, salts 0-50 mM",of lesser magnitude than calcium lactate but more potent than sodium chloride
same,% KC reduction at 10 mM calcium ion,TLR 5,54 ± 6%
same,% KC reduction at 25 mM calcium ion,TLR 5,50 ± 2%
same,% KC reduction at 10 mM calcium ion,TLR1/2,−1 ± 9%
same,% KC reduction at 25 mM calcium ion,TLR1/2,−27 ± 58%
same,% KC reduction at 10 mM calcium ion,TLR2,46 ± 10%
same,% KC reduction at 25 mM calcium ion,TLR2,85 ± 9%
same,% KC reduction at 10 mM calcium ion,TLR2/6,−25 ± 11%
same,% KC reduction at 25 mM calcium ion,TLR2/6,−51 ± 27%
same,% KC reduction at 10 mM calcium ion,TLR3,81 ± 7%
same,% KC reduction at 25 mM calcium ion,TLR3,76 ± 16%
same,% KC reduction at 10 mM calcium ion,TLR4,68 ± 15%
same,% KC reduction at 25 mM calcium ion,TLR4,75 ± 13%
same,% KC reduction at 10 mM calcium ion,TLR7,−10 ± 41%
same,% KC reduction at 25 mM calcium ion,TLR7,−20 ± 49%
same,% KC reduction at 10 mM calcium ion,TLR9,−55 ± 51%
same,% KC reduction at 25 mM calcium ion,TLR9,−144%
same,"gene expression of KC, IL-6 and TNFα","[2]; 1 ng/ml LPS, 2 hours, 10, 25, 50 mM, compared to untreated (0)",significantly reduced
same,NRIP1 gene expression,[2]; LPS stimulated,significantly reduced
same,"inflammatory mediator secretion (KC, TNF alpha)",[3],little effect
same,"inflammatory mediator secretion (KC, TNF alpha)",[4],dose-dependent decrease

# — patent publication US20140336159A1, “METHODS FOR TREATING AND DIAGNOSING RESPIRATORY TRACT INFECTIONS” (PULMATRIX, INC., priority 2011, published 2014)
